Laboratory results reported in patent US20260183274A1, “PDK1 REGULATORY COMPOUND AND COMPOSITION CONTAINING THE SAME” (PROVIBIO CO., LTD., priority 2024, published 2026).

How the values were obtained:
[1] = system: Human B Lymphocyte cell line, SU-DHL-8; experiment: Relative cell viability CCK-8, SU-DHL-8; assay type: cell-based; conditions: 48 hours, untreated (DMSO) = 100%; for viability at 1 µM / viability at 10 µM / viability at 30 µM / viability at 50 µM: Homo sapiens, SU-DHL-8, 48 h; for viability at 1 µM: read-out: Relative cell viability (%), SU-DHL-8, 1 μM; for viability at 10 µM: read-out: Relative cell viability (%), SU-DHL-8, 10 μM; for viability at 30 µM: read-out: Relative cell viability (%), SU-DHL-8, 30 μM; for viability at 50 µM: read-out: Relative cell viability (%), SU-DHL-8, 50 μM
Method in brief: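 Cells grown in RPMI-1640 with 10% FBS, treated with compound at several concentrations, then given CCK-8 for 4 h at 37° C. Viability expressed as percent of DMSO-treated cells.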

[2] = system: T cells isolated from mouse spleens; experiment: T cell proliferation inhibition (CFSE flow cytometry, anti-CD3/anti-CD28 stimulation); assay type: cell-based; conditions: mouse spleen T cells, 3 days; for inhibition at 0.01 µM / inhibition at 0.1 µM / inhibition at 1 µM / inhibition at 10 µM / inhibition at 30 µM / inhibition at 50 µM: Mus musculus, T-cell, 72 h, read-out: Proliferation inhibition rate (%)
Method in brief: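 Splenic T cells from 7-week-old C57BL/6 mice were MACS-isolated, CFSE-labelled, seeded at 2×10^5 cells/well and activated with anti-CD3/anti-CD28 (0.5 μg/mL each). Compound at 10 nM–50 μM (six levels, triplicate) was present for 3 days at 37 °C before flow cytometric readout of proliferation inhibition rate.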

| SMILES | Proliferation inhibition rate (%) ([2]; compound 100 nM) | Proliferation inhibition rate (%) ([2]; compound 1 μM) | Proliferation inhibition rate (%) ([2]; compound 10 μM) | Proliferation inhibition rate (%) ([2]; compound 30 μM) | Proliferation inhibition rate (%) ([2]; compound 50 μM) | viability at 1 µM [1] | viability at 10 µM [1] | viability at 30 µM [1] | viability at 50 µM [1] | inhibition at 0.01 µM ([2]; compound 10 nM) | inhibition at 0.1 µM ([2]; compound 100 nM) | inhibition at 1 µM ([2]; compound 1 μM) | inhibition at 10 µM ([2]; compound 10 μM) | inhibition at 30 µM ([2]; compound 30 μM) | inhibition at 50 µM ([2]; compound 50 μM) | Relative cell viability (%), SU-DHL-8 ([1]; 1 μM) | Relative cell viability (%), SU-DHL-8 ([1]; 10 μM) | Relative cell viability (%), SU-DHL-8 ([1]; 30 μM) | Proliferation inhibition rate (%) ([2]; compound 10 nM) | also measured |
| --- | --- | --- | --- | --- | --- | --- | --- | --- | --- | --- | --- | --- | --- | --- | --- | --- | --- | --- | --- | --- |
| COC1CCN(CCCCCCCCCCCCNC(=O)c2cccnc2N)C1 (centres unmarked) [Compound 126, 2-amino-N-(12-(3-methoxypyrrolidin-1-yl)dodecyl) nicotinamide] | 100.00% | 100.00% | 100.00% | 100.00% | 100.00% | – | – | – | – | – | – | – | – | – | – | – | – | – | – | Relative cell viability (%), SU-DHL-8 ([1]; 1 μM, listed as K-PB-48, 1 µM): 33.03%; Relative cell viability (%), SU-DHL-8 ([1]; 10 μM, listed as K-PB-48, 10 µM): 31.98%; Relative cell viability (%), SU-DHL-8 ([1]; 30 μM, listed as K-PB-48, 30 µM): 32.32%; Relative cell viability (%), SU-DHL-8 ([1]; 50 μM, listed as K-PB-48, 50 µM): 30.44%; Proliferation inhibition rate (%) ([2]; compound 10 nM, listed as K-PB-48, 0.01 µM): 0.00% |
| Cc1nnc(C)n1CCCCCCCCCCCCNC(=O)c1cccnc1N [Compound 56, 2-Amino-N-(12-(3,5-dimethyl-4H-1,2,4-triazol-4-yl)dodecyl)nicotinamide] | – | – | – | – | – | 32.4% | 19.6% | 11.2% | 0% | -2.51% | 2.91% | 81.1% | 100% | 100% | 100% | – | – | – | – | – |
| O=C(NCCCCCCCCCCCCF)c1cccnc1S [Compound 62, N-(12-fluoro-dodecyl)-2-mercapto-nicotinamide] | – | – | – | – | – | 32.5% | 24.9% | 22.9% | 19.3% | 0% | 0% | 0% | -18.5% | 100% | 100% | – | – | – | – | – |
| Nc1ncccc1C(=O)NCCCCCCCCCCCCN1CCC(Oc2ccncc2)CC1 [Compound 38, 2-Amino-N-(12-(4-(pyridin-4-yloxy)piperidin-1-yl)dodecyl) nicotinamide] | 100.00% | 100.00% | 100.00% | 100.00% | 100.00% | – | – | – | – | – | – | – | – | – | – | 4.16% | 3.30% | 1.79% | −33.51% | Relative cell viability (%), SU-DHL-8 ([1]; 50 μM): 1.42% |
| Nc1ncccc1C(=O)NCCCCCCCCCCCCN1CCCC1 [Compound 20, 2-Amino-N-(12-(pyrrolidin-1-yl)dodecyl)nicotinamide] | – | – | – | – | – | 7.74% | 5.34% | 4.89% | 3.68% | 3.46% | 100% | 100% | 100% | 100% | 100% | – | – | – | – | – |
| Cc1ccc(C2CCN(CCCCCCCCCCCCNC(=O)c3cccnc3N)CC2)cc1 [Compound 55, 2-Amino-N-(12-(4-(p-tolyl)piperidin-1-yl)dodecyl) nicotinamide] | 100.00% | 100.00% | 100.00% | 100.00% | 100.00% | – | – | – | – | – | – | – | – | – | – | 9.36% | 4.92% | 1.10% | 89.67% | Relative cell viability (%), SU-DHL-8 ([1]; 50 μM): 0.97% |
| Nc1ncccc1C(=O)NCCCCCCCCCCCCN1CCC(F)C1 (centres unmarked) [Compound 26, 2-Amino-N-(12-(3-fluoropyrrolidin-1-yl)dodecyl) nicotinamide] | 100.00% | 100.00% | 100.00% | 100.00% | 100.00% | – | – | – | – | – | – | – | – | – | – | 1.70% | 1.04% | 0.05% | 2.13% | – |
| Nc1ncccc1C(=O)NCCCCCCCCCCCCN1CCS(=O)(=O)CC1 [Compound 25, 2-Amino-N-(12-(1,1-dioxidothiomorpholino)dodecyl) nicotinamide] | 89.43% | 100.00% | 100.00% | 100.00% | 100.00% | – | – | – | – | – | – | – | – | – | – | 9.73% | 1.26% | 0.11% | −2.67% | Relative cell viability (%), SU-DHL-8 ([1]; 50 μM): 0.95% |
| Nc1ncccc1C(=O)NCCCCCCCCCCCCN1CCSCC1 [Compound 4, 2-Amino-N-(12-thio-morpholin-4-yl-dodecyl)-nicotinamide] | – | – | – | – | – | 7.58% | 5.49% | 4.68% | 4.45% | 2.7% | 100% | 100% | 100% | 100% | 100% | – | – | – | – | – |
| CC(C)CN1CCN(CCCCCCCCCCCCC(=O)Nc2nc(N)c3[nH]cnc3n2)CC1 [Compound 6, 12-[4-(2-methylpropyl)piperazin-1-yl]dodecyl-N-(6-aminopurine-2-yl) carboxamide] | – | – | – | – | – | 7.83% | 6.39% | 4.66% | 3.94% | -18.5% | 100% | 100% | 100% | 100% | 100% | – | – | – | – | – |
| CC1CN(C(=O)OC(C)(C)C)C(C)CN1CCCCCCCCCCCCNC(=O)c1cccnc1N (centres unmarked) [Compound 30, tert-Butyl 4-(12-(2-aminonicotinamido)dodecyl)-2,5-dimethylpiperazine-1-carboxylate] | – | – | – | – | – | 7.9% | 2.6% | 1.86% | 1.06% | 1.34% | 100% | 100% | 100% | 100% | 100% | – | – | – | – | – |
| Nc1ncccc1C(=O)NCCCCCCCCCCN1CCOCC1 [Compound 63, 2-Amino-N-(10-morpholin-4-yl-decyl)-nicotinamide] | – | – | – | – | – | 33% | 29.8% | 29.1% | 27.9% | -9.84% | 4.85% | 11.2% | 100% | 100% | 100% | – | – | – | – | – |
| Nc1ncccc1C(=O)NCCCCCCCCCCCCn1ncc2ccc(Cl)nc21 [Compound 123, 2-Amino-N-(12-(6-chloro-1H-pyrazolo[3,4-b]pyridin-1-yl)dodecyl)nicotinamide] | – | – | – | – | – | 42.2% | 42.2% | 44.6% | 48.8% | -2.54% | 4.78% | 48.4% | 100% | 100% | 100% | – | – | – | – | – |
| Nc1nc(NC(=O)CCCCCCCCCCCCN2CCNCC2)nc2nc[nH]c12 [Compound 8, 12-(piperazin-1-yl)dodecyl-N-(6-aminopurine-2-yl) carboxamide] | – | – | – | – | – | 10.8% | 6.49% | 5.07% | 4.49% | 4.55% | 32.5% | 100% | 100% | 100% | 100% | – | – | – | – | – |
| CC1CCCN(CCCCCCCCCCCCNC(=O)c2cccnc2N)CC1 (centres unmarked) [Compound 39, 2-Amino-N-(12-(4-methylazepan-1-yl)dodecyl) nicotinamide] | 100.00% | 100.00% | 100.00% | 100.00% | 100.00% | – | – | – | – | – | – | – | – | – | – | 11.48% | 8.41% | 6.24% | −58.92% | Relative cell viability (%), SU-DHL-8 ([1]; 50 μM): 4.27% |
